Test systems include HCT-116 colon; HOP-62 NSCLC; HS 578T breast; IGROV1 ovarian; KM12 colon; NCI-H522 lung; OVCAR-5 ovarian; PC-3 prostate; SF-539 CNS; SN12C renal.
What all share (test): NCI anticancer screen, dose series, 48 h

Where “and” joins values, the source holds several entries; their conditions need not be identical. Equal values may be shown once.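 Exposure lasted 48 hours, with cells grown in 96-well plates and compounds tested at five concentrations. At the GI50, growth is halved. TGI: total growth inhibition.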

Consider `COc1cc2c(cc1OCCCN1CCN(C(=S)SCCC(C#N)(c3ccccc3)c3ccccc3)CC1)N=C[C@@H]1CCCN1C2=O`, for which the GI50 in the experiment with HCT-116 colon was 388 nM; in the experiment on HOP-62 NSCLC it was 121 nM; in the experiment with HS 578T breast, 560 nM; in the experiment with IGROV1 ovarian it was 381 nM; with KM12 colon, 1640 nM; in the experiment with NCI-H522 lung, 523 nM. Moreover, the GI50 with OVCAR-5 ovarian was 1140 nM; with PC-3 prostate it was 1450 nM; in the experiment on SF-539 CNS, 1450 nM; with SN12C renal, 820 nM. The TGI with HCT-116 colon is 1560 nM; in the experiment on HOP-62 NSCLC, 456 nM; in the experiment with HS 578T breast, 3680 nM; in the experiment with IGROV1 ovarian, 1740 nM; in the experiment with NCI-H522 lung it was 2430 nM; in the experiment on OVCAR-5 ovarian it was 2440 nM. In addition, the values for the TGI in the experiment on PC-3 prostate, with SF-539 CNS and with SN12C renal were above 100000 nM, 3370 nM and 2500 nM, respectively.
For the compound `C[C@]12CC[C@@H]3c4ccc(OC(=O)N(CCCl)CCCl)cc4CC[C@H]3[C@@H]1CC[C@@H]2OP(=O)(O)O`, the GI50 was 41900 nM in the experiment with HCT-116 colon; 63000 nM in the experiment with HOP-62 NSCLC; 26700 nM with HS 578T breast; above 100000 nM in the experiment on IGROV1 ovarian; 40300 nM with KM12 colon; 28800 nM in the experiment on NCI-H522 lung. The GI50 in the experiment on OVCAR-5 ovarian is above 62700 nM; in the experiment with PC-3 prostate, 41200 nM; in the experiment with SF-539 CNS, 22300 nM; in the experiment on SN12C renal it was 17200 nM. In addition, the TGI was above 100000 nM in the experiment on HCT-116 colon; above 100000 nM with HOP-62 NSCLC; above 76900 nM in the experiment on HS 578T breast; above 100000 nM in the experiment on IGROV1 ovarian; above 100000 nM in the experiment on KM12 colon; above 71500 nM in the experiment on NCI-H522 lung. The TGI with OVCAR-5 ovarian is above 100000 nM; with PC-3 prostate it was above 100000 nM; in the experiment on SF-539 CNS it was above 58100 nM; in the experiment with SN12C renal, 40100 nM.
As for `CC[C@@H](C)/C=C(C)/C=C/C(=O)c1c(O)c(-c2ccc(O)cc2)cn(OC2CC(=O)CCC(C)OC(=O)CC2O)c1=O` (some centres undefined), the GI50 in the experiment with HCT-116 colon is 272 nM; with HOP-62 NSCLC it was 356 nM; in the experiment on HS 578T breast, 2360 nM; in the experiment with IGROV1 ovarian, 316 nM; with KM12 colon, 1560 nM; in the experiment with NCI-H522 lung, 419 nM. Also, the GI50 was 2350 nM with OVCAR-5 ovarian, 5620 nM in the experiment with PC-3 prostate, 366 nM in the experiment with SF-539 CNS and 445 nM in the experiment on SN12C renal. Besides, the TGI with HCT-116 colon is 13000 nM; with HOP-62 NSCLC it was 12900 nM; in the experiment with HS 578T breast it was above 67200 nM; in the experiment on IGROV1 ovarian, 4660 nM; in the experiment with KM12 colon, 14700 nM; in the experiment with NCI-H522 lung, 11500 nM. For the same compound, the TGI was 23300 nM in the experiment on OVCAR-5 ovarian, above 91500 nM in the experiment on PC-3 prostate, 3840 nM in the experiment with SF-539 CNS and 13800 nM in the experiment on SN12C renal.
As to `O=C(O)c1ccc(/C=N/N=C2c3ccccc3-c3ccccc32)cc1`, the TGI in the experiment on HCT-116 colon was above 100000 nM; in the experiment on HOP-62 NSCLC, above 100000 nM; in the experiment on HS 578T breast it was 53100 nM; in the experiment on IGROV1 ovarian, above 100000 nM; in the experiment on KM12 colon, above 100000 nM; with NCI-H522 lung, above 100000 nM. Moreover, the TGI was above 100000 nM in the experiment with OVCAR-5 ovarian, above 100000 nM in the experiment with PC-3 prostate, 92300 nM in the experiment with SF-539 CNS and above 100000 nM in the experiment with SN12C renal.
For `CO/C(=C1/NC(=O)C(Cc2ccc(O)c(Br)c2)N(C)C(=O)C(C)NC(=O)CCC/C=C(\C)CCC(C)OC1=O)c1ccccc1` (centres undefined), the GI50 in the experiment with HCT-116 colon is below 14.6 nM; in the experiment with HOP-62 NSCLC it was 36.9 nM; in the experiment on HS 578T breast, 22.5 nM; in the experiment with IGROV1 ovarian it was 19.9 nM; with KM12 colon, 78.4 nM; in the experiment on NCI-H522 lung, 28.1 nM. In addition, the GI50 with OVCAR-5 ovarian was 44.5 nM; in the experiment with PC-3 prostate it was 36 nM; in the experiment with SF-539 CNS, 28.1 nM; in the experiment with SN12C renal, 69.5 nM. Moreover, the TGI in the experiment with HOP-62 NSCLC was 1180 nM; with HS 578T breast it was 55.3 nM; in the experiment on IGROV1 ovarian it was 46.5 nM; in the experiment on KM12 colon, 19200 nM; in the experiment on NCI-H522 lung, 438 nM; with OVCAR-5 ovarian, above 35000 nM. Moreover, the TGI was 595 nM in the experiment with PC-3 prostate, 783 nM in the experiment on SF-539 CNS and above 100000 nM in the experiment with SN12C renal.
For `CN(C)C1CN(C(=O)c2cc(-c3ccc4ncnc(N5CCc6cc(F)c(Cl)cc65)c4c3)cnc2N)C1`, the GI50 in the experiment with HCT-116 colon was 728 nM; in the experiment on HOP-62 NSCLC it was 586 nM; in the experiment with HS 578T breast it was 241 nM; in the experiment with IGROV1 ovarian it was 223 nM; in the experiment with KM12 colon, 1130 nM; in the experiment on NCI-H522 lung it was 1770 nM. The GI50 is 743 nM in the experiment with OVCAR-5 ovarian, 398 nM in the experiment with PC-3 prostate, 827 nM with SF-539 CNS and 385 nM in the experiment with SN12C renal. The TGI was above 28100 nM with HOP-62 NSCLC; 1310 nM in the experiment with HS 578T breast; 1230 nM with IGROV1 ovarian; above 100000 nM in the experiment with KM12 colon; above 100000 nM in the experiment on NCI-H522 lung; above 100000 nM in the experiment on OVCAR-5 ovarian. In addition, the values for the TGI with PC-3 prostate, with SF-539 CNS and with SN12C renal were above 23000 nM, 5070 nM and above 100000 nM, respectively.
Regarding `CCC(C)C1NC(=O)C(NC(=O)C(CC(C)C)N(C)C(=O)[C@@H]2CC(O)CN2C(=O)[C@H](C)O)C(C)OC(=O)[C@H](Cc2ccc(OC)cc2)N(C)C(=O)[C@@H]2CCCN2C(=O)[C@H](CC(C)C)NC(=O)C(C)C(=O)[C@H](C(C)C)OC(=O)CC1O` (some centres undefined), the GI50 with HCT-116 colon is below 10 nM; in the experiment on HOP-62 NSCLC, 28 nM; in the experiment with HS 578T breast, below 10 nM; with IGROV1 ovarian, 19.1 nM; with KM12 colon, below 10 nM; with NCI-H522 lung, 20.8 nM. For the same compound, the GI50 was 417 nM in the experiment on OVCAR-5 ovarian, 60.3 nM with PC-3 prostate, 10.4 nM in the experiment on SF-539 CNS and 57.2 nM in the experiment with SN12C renal. For the same compound, the TGI was 1010 nM and 1600 nM with HCT-116 colon; 1400 nM and 394 nM with HOP-62 NSCLC; 283 nM and 31.7 nM in the experiment on HS 578T breast; 1400 nM and 312 nM in the experiment on IGROV1 ovarian; 735 nM and 173 nM with KM12 colon; 902 nM and 234 nM in the experiment on NCI-H522 lung. Further, the TGI in the experiment with OVCAR-5 ovarian was 2530 nM and 2140 nM; in the experiment with PC-3 prostate it was 1830 nM and 416 nM; in the experiment with SF-539 CNS, 211 nM and 335 nM; in the experiment on SN12C renal it was 806 nM and 3200 nM.
For the compound `CC1[C@@H]2CC=C3[C@H]4CCC5Cc6nc7c(nc6C[C@@]5(C)C4CC(=O)[C@]32CO[C@]12OC(C)(C)CC2O)CC1CC[C@@H]2C3=C[C@H]4O[C@@]5(O[C@@](C)(CO)C[C@@H]5O)C(C)[C@@]4(O)[C@]3(C)[C@@H](O)CC2[C@]1(C)C7` (some centres undefined), the GI50 in the experiment with HCT-116 colon was 0.846 nM and 2.81 nM; in the experiment with HOP-62 NSCLC, 0.24 nM and 0.365 nM; with HS 578T breast, 0.112 nM; in the experiment on IGROV1 ovarian it was 3.99 nM and 5.2 nM; in the experiment with KM12 colon, 1.88 nM and 0.966 nM; with NCI-H522 lung, 13.1 nM. Moreover, the GI50 was 13 nM and 4.25 nM in the experiment with OVCAR-5 ovarian; 0.287 nM with PC-3 prostate; 0.16 nM and 0.365 nM in the experiment with SF-539 CNS; 295 nM with SN12C renal. In addition, the TGI with HCT-116 colon is 83.7 nM and 532 nM; with HOP-62 NSCLC, 2.48 nM and 6.09 nM; with HS 578T breast, 1.37 nM; in the experiment on KM12 colon, 78.8 nM and 84.8 nM; in the experiment with OVCAR-5 ovarian, 139 nM and 23.7 nM; with PC-3 prostate it was 27.4 nM. Besides, the TGI with SN12C renal was 906 nM and > 3650 nM.

For the origin of these results see PubChem BioAssay (NCI).
